Results reported in patent publication US10681909B2, “Herbicidal triazoles” (FMC Corporation, priority 2014, dated 2020).

Tests used:
ryegrass, Italian = experiment: Test C postemergence; type: in vivo, Lolium multiflorum
In short: (§1)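 Plants are treated postemergence at the 1- to 4-leaf stage (2 to 18 cm), grown in sphagnum peat/vermiculite medium; preemergence treatment is applied to seed planted in loam soil with sand. Both use test chemical in a non-phytotoxic solvent mixture with surfactant.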

wheat = experiment: Test A postemergence; type: in vivo, Triticum aestivum; conditions: 0 to 100 scale (0 no effect, 100 complete control), approx. 10 d
In short: (§2)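 Test chemicals, formulated in a surfactant-containing non-phytotoxic solvent mixture, are applied either as a directed soil spray to newly planted seeds or as a postemergence application to plants at the one- to two-leaf stage (2–10 cm). All plants grow in a loam soil and sand blend.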

wheat (winter wheat) = experiment: Test C postemergence; type: in vivo, Triticum aestivum
In short: as §1

barnyardgrass [1] = experiment: Test A postemergence; type: in vivo, Echinochloa crus-galli; conditions: 0 to 100 scale (0 no effect, 100 complete control), approx. 10 d
In short: as §2

foxtail, giant = experiment: Test C postemergence; type: in vivo, Setaria faberii
In short: as §1

corn = experiment: Test A postemergence; type: in vivo, Zea mays; conditions: 0 to 100 scale (0 no effect, 100 complete control), approx. 10 d
In short: as §2

lambsquarters = experiment: Test C postemergence; type: in vivo, Chenopodium album
In short: as §1

sedge, umbrella = experiment: Test B flooded paddy test; type: in vivo, Cyperus difformis; conditions: 250 g ai/ha, applied to paddy water at 2-leaf stage, visual rating after 13 to 15 d, scale 0 (no effect) to 100 (complete control)
In short: (§3)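 Pots were flooded to 3 cm above the soil at treatment, and compounds were applied directly into the paddy water. That depth was held throughout. After 13 to 15 d in a greenhouse, plants were rated visually against untreated controls.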

pigweed = experiment: Test C postemergence; type: in vivo, Amaranthus retroflexus
In short: as §1

blackgrass = experiment: Test C postemergence; type: in vivo, Alopecurus myosuroides
In short: as §1

barnyardgrass [2] = experiment: Test A preemergence; type: in vivo, Echinochloa crus-galli; conditions: 0 to 100 scale (0 no effect, 100 complete control)
In short: as §2

oat, wild = experiment: Test C postemergence; type: in vivo, Avena fatua
In short: as §1

waterhemp = experiment: Test C postemergence; type: in vivo, Amaranthus rudis
In short: as §1

barnyardgrass [3] = experiment: Test B flooded paddy test; type: in vivo, Echinochloa crus-galli; conditions: 250 g ai/ha, applied to paddy water at 2-leaf stage, visual rating after 13 to 15 d, scale 0 (no effect) to 100 (complete control)
In short: as §3

oilseed rape = experiment: Test C postemergence; type: in vivo, Brassica napus
In short: as §1

morningglory = experiment: Test C postemergence; type: in vivo, Ipomoea coccinea
In short: as §1

rice = experiment: Test B flooded paddy test; type: in vivo, Oryza sativa; conditions: 250 g ai/ha, applied to paddy water at 2-leaf stage, visual rating after 13 to 15 d, scale 0 (no effect) to 100 (complete control)
In short: as §3

chickweed = experiment: Test C postemergence; type: in vivo, Stellaria media
In short: as §1

kochia = experiment: Test C postemergence; type: in vivo, Kochia scoparia
In short: as §1

nutsedge, yellow = experiment: Test C postemergence; type: in vivo, Cyperus esculentus
In short: as §1

FC(F)(F)COc1nc(-c2ccccc2)nn1Cc1ccnc(C(F)(F)F)c1 [Compound 24]
Plant response rating (scale of 0 to 100 where 0 is no effect and 100 is complete control) (ryegrass, Italian; 31 g ai/ha): 5
Plant response rating (scale of 0 to 100 where 0 is no effect and 100 is complete control) (ryegrass, Italian; 62 g ai/ha): 5
Plant response rating (scale of 0 to 100 where 0 is no effect and 100 is complete control) (ryegrass, Italian; 125 g ai/ha): 20
Plant response rating (scale of 0 to 100 where 0 is no effect and 100 is complete control) (ryegrass, Italian; 250 g ai/ha): 25
Plant response rating, Wheat (wheat; 125 g ai/ha): 20
Plant response rating, Wheat (wheat; 500 g ai/ha): 30
Plant response rating (scale of 0 to 100 where 0 is no effect and 100 is complete control) (wheat (winter wheat); 31 g ai/ha): 5
Plant response rating (scale of 0 to 100 where 0 is no effect and 100 is complete control) (wheat (winter wheat); 62 g ai/ha): 5
Plant response rating (scale of 0 to 100 where 0 is no effect and 100 is complete control) (wheat (winter wheat); 125 g ai/ha): 5
Plant response rating (scale of 0 to 100 where 0 is no effect and 100 is complete control) (wheat (winter wheat); 250 g ai/ha): 5
Plant response rating, Barnyardgrass (barnyardgrass [1]; 125 g ai/ha): 30
Plant response rating, Barnyardgrass (barnyardgrass [1]; 500 g ai/ha): 70
Plant response rating (scale of 0 to 100 where 0 is no effect and 100 is complete control) (foxtail, giant; 31 g ai/ha): 15
Plant response rating (scale of 0 to 100 where 0 is no effect and 100 is complete control) (foxtail, giant; 62 g ai/ha): 20
Plant response rating (scale of 0 to 100 where 0 is no effect and 100 is complete control) (foxtail, giant; 125 g ai/ha): 20
Plant response rating (scale of 0 to 100 where 0 is no effect and 100 is complete control) (foxtail, giant; 250 g ai/ha): 20
Plant response rating, Corn (corn; 125 g ai/ha): 20
Plant response rating, Corn (corn; 500 g ai/ha): 40
Plant response rating (scale of 0 to 100 where 0 is no effect and 100 is complete control) (lambsquarters; 31 g ai/ha): 100
Plant response rating (scale of 0 to 100 where 0 is no effect and 100 is complete control) (lambsquarters; 62 g ai/ha): 100
Plant response rating (scale of 0 to 100 where 0 is no effect and 100 is complete control) (lambsquarters; 125 g ai/ha): 100
Plant response rating (scale of 0 to 100 where 0 is no effect and 100 is complete control) (lambsquarters; 250 g ai/ha): 100
Plant response rating, Sedge, Umbrella, Flood (sedge, umbrella): 85
Plant response rating (scale of 0 to 100 where 0 is no effect and 100 is complete control) (pigweed; 31 g ai/ha): 100
Plant response rating (scale of 0 to 100 where 0 is no effect and 100 is complete control) (pigweed; 62 g ai/ha): 100
Plant response rating (scale of 0 to 100 where 0 is no effect and 100 is complete control) (pigweed; 125 g ai/ha): 100
Plant response rating (scale of 0 to 100 where 0 is no effect and 100 is complete control) (pigweed; 250 g ai/ha): 100
Plant response rating (scale of 0 to 100 where 0 is no effect and 100 is complete control) (blackgrass; 31 g ai/ha): 5
Plant response rating (scale of 0 to 100 where 0 is no effect and 100 is complete control) (blackgrass; 62 g ai/ha): 5
Plant response rating (scale of 0 to 100 where 0 is no effect and 100 is complete control) (blackgrass; 125 g ai/ha): 35
Plant response rating (scale of 0 to 100 where 0 is no effect and 100 is complete control) (blackgrass; 250 g ai/ha): 35
Plant response rating, Barnyardgrass (barnyardgrass [2]; 125 g ai/ha): 50
Plant response rating, Barnyardgrass (barnyardgrass [2]; 500 g ai/ha, approx. 10 d): 90
Plant response rating (scale of 0 to 100 where 0 is no effect and 100 is complete control) (oat, wild; 31 g ai/ha): 15
Plant response rating (scale of 0 to 100 where 0 is no effect and 100 is complete control) (oat, wild; 62 g ai/ha): 30
Plant response rating (scale of 0 to 100 where 0 is no effect and 100 is complete control) (oat, wild; 125 g ai/ha): 20
Plant response rating (scale of 0 to 100 where 0 is no effect and 100 is complete control) (oat, wild; 250 g ai/ha): 35
Plant response rating (scale of 0 to 100 where 0 is no effect and 100 is complete control) (waterhemp; 31 g ai/ha): 100
Plant response rating (scale of 0 to 100 where 0 is no effect and 100 is complete control) (waterhemp; 62 g ai/ha): 98
Plant response rating (scale of 0 to 100 where 0 is no effect and 100 is complete control) (waterhemp; 125 g ai/ha): 98
Plant response rating (scale of 0 to 100 where 0 is no effect and 100 is complete control) (waterhemp; 250 g ai/ha): 98
Plant response rating, Barnyardgrass, Flood (barnyardgrass [3]): 30
Plant response rating (scale of 0 to 100 where 0 is no effect and 100 is complete control) (oilseed rape; Oilsee Rape, 250 g ai/ha): 85
Plant response rating (scale of 0 to 100 where 0 is no effect and 100 is complete control) (oilseed rape; Oilseed Rape, 31 g ai/ha): 50
Plant response rating (scale of 0 to 100 where 0 is no effect and 100 is complete control) (oilseed rape; Oilseed Rape, 62 g ai/ha): 80
Plant response rating (scale of 0 to 100 where 0 is no effect and 100 is complete control) (oilseed rape; Oilseed Rape, 125 g ai/ha): 85
Plant response rating (scale of 0 to 100 where 0 is no effect and 100 is complete control) (morningglory; 31 g ai/ha): 98
Plant response rating (scale of 0 to 100 where 0 is no effect and 100 is complete control) (morningglory; 62 g ai/ha): 98
Plant response rating (scale of 0 to 100 where 0 is no effect and 100 is complete control) (morningglory; 125 g ai/ha): 90
Plant response rating (scale of 0 to 100 where 0 is no effect and 100 is complete control) (morningglory; 250 g ai/ha): 95
Plant response rating, Rice, Flood (rice): 0
Plant response rating (scale of 0 to 100 where 0 is no effect and 100 is complete control) (chickweed; 31 g ai/ha): 55
Plant response rating (scale of 0 to 100 where 0 is no effect and 100 is complete control) (chickweed; 62 g ai/ha): 80
Plant response rating (scale of 0 to 100 where 0 is no effect and 100 is complete control) (chickweed; 125 g ai/ha): 65
Plant response rating (scale of 0 to 100 where 0 is no effect and 100 is complete control) (chickweed; 250 g ai/ha): 85
Plant response rating (scale of 0 to 100 where 0 is no effect and 100 is complete control) (kochia; 31 g ai/ha): 90
Plant response rating (scale of 0 to 100 where 0 is no effect and 100 is complete control) (kochia; 62 g ai/ha): 90
Plant response rating (scale of 0 to 100 where 0 is no effect and 100 is complete control) (kochia; 125 g ai/ha): 90
Plant response rating (scale of 0 to 100 where 0 is no effect and 100 is complete control) (kochia; 250 g ai/ha): 90
Plant response rating (scale of 0 to 100 where 0 is no effect and 100 is complete control) (nutsedge, yellow; 31 g ai/ha): 15
Plant response rating (scale of 0 to 100 where 0 is no effect and 100 is complete control) (nutsedge, yellow; 62 g ai/ha): 25
Plant response rating (scale of 0 to 100 where 0 is no effect and 100 is complete control) (nutsedge, yellow; 125 g ai/ha): 20
Plant response rating (scale of 0 to 100 where 0 is no effect and 100 is complete control) (nutsedge, yellow; 250 g ai/ha): 25
